One series deals with T1, human Nav1.5 (Homo sapiens, UniProt Q14524).
T1 construct: expressed in transfected cells; host or cells: HEK293 stably expressing human Nav1.5
Put plainly: Whole-cell patch-clamp, HEK293 cells stably expressing human Nav1.5. The series is classed as cell-based. To be noted: for Activation / Long-term inactivation, 2nd Pulse / Long-term inactivation, 3rd Pulse / Long-term inactivation, 4th Pulse / Peak Density / Steady state inactivation / Tau (τ): HEK293 Nav1.5. Here is the method:
(§1) Whole-cell patch clamp electrophysiology
(§2) HEK293-Nav1.7 cells, HEK293 stably expressing human Nav1.6 (HEK-Nav1.6), HEK293 stably expressing human Nav1.5 (HEK-Nav1.5), human hIPSC-derived sensory neurons (RealDRGTM from Anatomic Incorporated 1020F1-1M) and donor-derived DRG neurons were plated at low density on glass coverslips and processed for whole-cell patch clamp electrophysiology in voltage-clamp and/or current clamp mode. Whole-cell patch electrophysiological experiments were conducted following previously published studies (26). Current densities were obtained by dividing INa amplitude by membrane capacitance. Current –voltage relationships were generated by plotting current density as a function of the […]. Conductance (G Na) was calculated by the […]
(§3) where INa is the current amplitude at voltage Vm, and Erev is the Na+ reversal potential.
(§4) Activation curves were derived by plotting normalized GNa as a function of test potential and fitted using […]
(§5) Where GNa,Max is the maximum conductance, Va is the membrane potential of half-maximal activation, Em is the membrane voltage and k is the slope factor. For steady -state inactivation, normalized current amplitude (INa/INa,Max) at the test potential was plotted as a function of prepulse potential (Vm) and fitted using the […]
(§6) Where Vh is the potential of half-maximal inactivation, E m is the membrane voltage, and k is the slope factor.
(§7) Transient INa inactivation decay was estimated with the standard exponential equation. Inactivation time constant (tau, τ) was fitted with the following equation: […]
(§8) where I(t) is the amplitude of the current at time t and Iss is the steady-state current during a single voltage-step.
(§9) The goodness of fitting was determined by correlation coefficient (R), and the cutoff of R was set at 0.85. To observe effects on long-term inactivation (LTI), a four-step protocol was employed during which cells were subjected to four 0 mV, 20 ms depolarization pulses separated by −90 mV, 40 ms recovery intervals. To control for various cell sizes, the current densities were calculated by dividing INa peak current amplitude/membrane capacitance (Cm). To represent the fraction of channels entering into LTI, the peak INa observed during depolarization cycles 2-4 was normalized to the peak INa observed during depolarization cycle 1 (INa/INa,Cycle 1) and plotted as a function of the depolarization cycle.
(§10) The cumulative (frequency-dependent) use-dependency was determined by applying 20 pulses with a depolarization to −10 mV (50 ms duration) and 50 ms recovery intervals with a train of 20 pulses at 10 Hz from a holding potential at -70 mV. The current pulses were normalized to the first reco rded pulse and the currents at the 2nd to 20th pulses were compared. The same train was used to record use-dependency at various frequencies […]
(§11) The rate of recovery from inactivation was recorded at -80 mV with a standard repriming voltage protocol.
(§12) The cells were prepulsed to -20 mV for 20 ms to inactivate all currents, then driven back to the recovery potential (Vrec) for increasing recovery durations before the test pulse to 0 mV. The maximum pulse rate was 0.5 Hz. The […]
(§13) follows previous publications (16). The time constants were estimated from single exponential decay to time courses measured at recovery potentials ranging from -140 to -60 mV with the protocol as mentioned above.
(§14) Electrophysiological Recordings
(§15) HEK293 cells: Electrophysiological recordings in HEK293 stably expressing Nav1.7 (HEK-Nav1.7), Nav1.5 (HEK-Nav1.5) or Nav1.6 (HEK-Nav1.6) were performed at room temperature using a MultiClamp 700B or an Axopatch 200B amplifier (Molecular Devices) after incubating coverslips for 60 minutes either with 0.1% DMSO or 50 μM PW164 or ZL192 in the extracellular solution. The composition of recording solutions consisted of the […]
(§16) following salts: extracellular (mM): 140 NaCl, 3 KCl, 1 MgCl2, 1 CaCl2, 10 HEPES, 10 glucose, pH 7.3; […]
(§17) intracellular (mM): 130 CH3O3 SCs, 1 EGTA, 10 NaCl, 10 HEPES, pH 7.3. […]
On the technique in general: Patch clamp records ionic current or voltage across a cell membrane.

Another series concerns the target T2, human Nav1.6 (Homo sapiens, UniProt Q9UQD0).
T2 construct: expressed in transfected cells; host or cells: HEK293 stably expressing human Nav1.6
The experiment in a line: Whole-cell patch-clamp, HEK293 cells stably expressing human Nav1.6. The series is classed as cell-based. Here is the method: as §1, §2, §3, §4, §5, §6, §7, §8, §9, §10, §11, §12, §13, §14, §15, §16, §17

Where [1] appears, read: HEK293 Nav1.6, FGF13-1a-GFP + PW164.

Entries after “also recorded” stand apart in the source; their conditions may differ. Residues, ends and D or L forms follow the SMILES beside them. *: point of attachment. Cbz = O=C(OCc1ccccc1)*; OtBu = CC(C)(C)O*

T2 sequence (Q9UQD0 whole entry): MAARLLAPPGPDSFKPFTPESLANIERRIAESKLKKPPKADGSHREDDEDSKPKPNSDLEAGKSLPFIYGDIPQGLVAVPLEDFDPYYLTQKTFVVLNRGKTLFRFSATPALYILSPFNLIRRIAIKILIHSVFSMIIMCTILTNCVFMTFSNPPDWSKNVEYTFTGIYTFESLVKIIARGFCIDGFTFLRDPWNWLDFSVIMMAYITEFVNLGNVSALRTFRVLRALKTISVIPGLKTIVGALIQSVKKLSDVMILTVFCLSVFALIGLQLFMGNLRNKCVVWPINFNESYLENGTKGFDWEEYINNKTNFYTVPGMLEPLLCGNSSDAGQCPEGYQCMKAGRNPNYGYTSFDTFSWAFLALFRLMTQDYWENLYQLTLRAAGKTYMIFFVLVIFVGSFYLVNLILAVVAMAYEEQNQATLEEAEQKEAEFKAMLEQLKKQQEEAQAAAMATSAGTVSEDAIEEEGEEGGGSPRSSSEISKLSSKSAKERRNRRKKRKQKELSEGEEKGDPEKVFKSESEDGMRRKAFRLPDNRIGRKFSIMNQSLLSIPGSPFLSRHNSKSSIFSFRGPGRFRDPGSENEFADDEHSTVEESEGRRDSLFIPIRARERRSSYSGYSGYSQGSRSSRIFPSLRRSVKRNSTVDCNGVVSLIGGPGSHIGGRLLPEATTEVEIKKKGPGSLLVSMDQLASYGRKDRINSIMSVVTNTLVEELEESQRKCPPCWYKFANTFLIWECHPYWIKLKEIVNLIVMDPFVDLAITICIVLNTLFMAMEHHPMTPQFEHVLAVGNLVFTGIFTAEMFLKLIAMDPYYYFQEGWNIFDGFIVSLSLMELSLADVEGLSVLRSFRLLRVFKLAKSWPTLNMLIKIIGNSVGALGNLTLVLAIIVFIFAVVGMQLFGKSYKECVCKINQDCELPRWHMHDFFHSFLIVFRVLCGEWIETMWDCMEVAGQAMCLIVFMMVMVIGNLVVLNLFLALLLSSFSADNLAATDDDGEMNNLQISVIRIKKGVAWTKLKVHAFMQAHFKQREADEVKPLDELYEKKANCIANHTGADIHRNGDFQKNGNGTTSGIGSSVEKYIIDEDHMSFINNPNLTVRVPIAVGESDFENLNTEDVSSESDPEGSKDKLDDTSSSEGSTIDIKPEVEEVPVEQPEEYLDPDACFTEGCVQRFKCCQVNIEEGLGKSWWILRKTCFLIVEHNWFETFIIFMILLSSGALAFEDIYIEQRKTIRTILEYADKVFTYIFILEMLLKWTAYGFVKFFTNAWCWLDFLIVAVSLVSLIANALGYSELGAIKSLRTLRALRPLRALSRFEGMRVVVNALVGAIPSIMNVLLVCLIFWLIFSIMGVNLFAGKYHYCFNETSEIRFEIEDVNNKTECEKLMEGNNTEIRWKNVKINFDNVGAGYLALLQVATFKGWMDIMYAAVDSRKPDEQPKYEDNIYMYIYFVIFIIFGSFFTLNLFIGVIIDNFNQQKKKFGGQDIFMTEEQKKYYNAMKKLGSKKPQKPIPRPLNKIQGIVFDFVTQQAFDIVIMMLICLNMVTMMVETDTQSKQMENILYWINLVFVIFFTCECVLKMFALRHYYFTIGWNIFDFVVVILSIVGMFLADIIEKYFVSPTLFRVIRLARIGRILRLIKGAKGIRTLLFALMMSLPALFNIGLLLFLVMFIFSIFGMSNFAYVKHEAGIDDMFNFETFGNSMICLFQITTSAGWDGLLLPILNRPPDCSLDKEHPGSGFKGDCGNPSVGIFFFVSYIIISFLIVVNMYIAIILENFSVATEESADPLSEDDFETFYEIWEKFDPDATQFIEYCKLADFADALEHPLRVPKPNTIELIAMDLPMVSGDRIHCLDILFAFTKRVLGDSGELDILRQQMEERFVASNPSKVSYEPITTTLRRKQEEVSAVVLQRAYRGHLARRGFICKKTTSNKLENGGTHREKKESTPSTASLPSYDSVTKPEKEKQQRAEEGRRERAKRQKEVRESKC
T1 sequence (Q14524 whole entry): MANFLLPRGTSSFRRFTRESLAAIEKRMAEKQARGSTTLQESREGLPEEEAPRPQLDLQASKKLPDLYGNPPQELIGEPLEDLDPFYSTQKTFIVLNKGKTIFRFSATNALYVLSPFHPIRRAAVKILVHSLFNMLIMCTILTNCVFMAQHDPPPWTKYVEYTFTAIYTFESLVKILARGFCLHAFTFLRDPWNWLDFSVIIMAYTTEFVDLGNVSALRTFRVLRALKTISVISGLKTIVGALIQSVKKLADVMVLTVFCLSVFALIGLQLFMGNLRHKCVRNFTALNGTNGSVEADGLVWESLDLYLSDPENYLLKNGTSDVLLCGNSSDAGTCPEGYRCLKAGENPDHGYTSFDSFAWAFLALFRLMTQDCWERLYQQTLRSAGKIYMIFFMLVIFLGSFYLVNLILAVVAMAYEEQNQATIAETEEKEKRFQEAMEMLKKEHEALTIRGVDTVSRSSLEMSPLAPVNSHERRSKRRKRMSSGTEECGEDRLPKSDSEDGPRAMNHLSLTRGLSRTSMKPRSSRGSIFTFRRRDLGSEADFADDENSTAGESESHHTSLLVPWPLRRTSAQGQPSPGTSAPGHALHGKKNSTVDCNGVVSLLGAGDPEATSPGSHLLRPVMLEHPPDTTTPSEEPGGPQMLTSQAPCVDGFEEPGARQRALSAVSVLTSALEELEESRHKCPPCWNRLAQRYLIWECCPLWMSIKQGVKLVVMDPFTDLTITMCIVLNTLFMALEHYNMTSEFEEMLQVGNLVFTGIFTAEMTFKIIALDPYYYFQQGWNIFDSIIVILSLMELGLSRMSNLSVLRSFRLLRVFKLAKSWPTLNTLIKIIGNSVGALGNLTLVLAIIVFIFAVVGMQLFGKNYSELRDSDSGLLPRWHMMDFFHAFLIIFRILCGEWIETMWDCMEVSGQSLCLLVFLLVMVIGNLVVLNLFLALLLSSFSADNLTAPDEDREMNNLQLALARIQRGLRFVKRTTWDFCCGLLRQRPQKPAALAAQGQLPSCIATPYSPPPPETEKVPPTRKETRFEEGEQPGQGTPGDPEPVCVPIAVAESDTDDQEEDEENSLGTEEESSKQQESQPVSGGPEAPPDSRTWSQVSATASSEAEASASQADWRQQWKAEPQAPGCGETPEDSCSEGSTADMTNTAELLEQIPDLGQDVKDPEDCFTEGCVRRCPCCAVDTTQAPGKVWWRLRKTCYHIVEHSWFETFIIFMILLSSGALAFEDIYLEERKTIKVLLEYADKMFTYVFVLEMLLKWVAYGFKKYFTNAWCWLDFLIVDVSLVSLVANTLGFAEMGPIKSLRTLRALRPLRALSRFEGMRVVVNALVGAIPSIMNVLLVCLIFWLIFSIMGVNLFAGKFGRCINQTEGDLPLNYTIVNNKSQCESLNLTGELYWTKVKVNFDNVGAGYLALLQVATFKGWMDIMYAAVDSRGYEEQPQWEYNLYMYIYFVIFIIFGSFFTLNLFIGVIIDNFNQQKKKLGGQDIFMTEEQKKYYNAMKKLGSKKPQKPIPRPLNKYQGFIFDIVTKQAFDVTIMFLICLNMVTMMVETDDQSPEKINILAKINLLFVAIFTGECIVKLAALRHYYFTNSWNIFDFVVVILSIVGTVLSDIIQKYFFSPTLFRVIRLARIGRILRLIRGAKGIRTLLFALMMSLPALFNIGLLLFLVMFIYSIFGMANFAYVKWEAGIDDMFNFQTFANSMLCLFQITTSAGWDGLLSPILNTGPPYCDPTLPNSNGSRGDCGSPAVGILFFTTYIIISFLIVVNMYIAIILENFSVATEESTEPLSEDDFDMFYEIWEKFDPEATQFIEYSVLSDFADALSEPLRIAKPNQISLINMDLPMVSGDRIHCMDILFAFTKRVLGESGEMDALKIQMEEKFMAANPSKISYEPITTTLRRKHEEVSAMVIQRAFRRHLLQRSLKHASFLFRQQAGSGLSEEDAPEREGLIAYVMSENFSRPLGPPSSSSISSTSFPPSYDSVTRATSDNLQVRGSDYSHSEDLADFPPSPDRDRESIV

With `COC(=O)[C@@H](NC(=O)[C@H](CCC(=O)OC(C)(C)C)NC(=O)[C@H](CC(C)C)NC(=O)[C@@H]1CCCN1C(=O)OCc1ccccc1)C(C)C` [PW164] (Cbz-PLE(OtBu)V-OMe), at human Nav1.5 (FGF13-GFP + PW164), the Activation is on record as −37.38 ± 2.1 mV; the “Long-term inactivation, 2nd Pulse” value is given as −89.1 ± 1.71 % maximal Na+ current; the “Long-term inactivation, 3rd Pulse” value is reported as −86.58 ± 1.69 % maximal Na+ current; the “Long-term inactivation, 4th Pulse” value was −84.72 ± 1.83 % maximal Na+ current. Besides, on human Nav1.5 (FGF13-GFP + PW164), the Peak Density is reported as −203.0 ± 15.6 pA/pF, the Steady state inactivation is −75.9 ± 2.1 mV and the “Tau (τ)” value is 0.90 ± 0.04 ms. On human Nav1.5 (GFP + PW164), the Activation is reported as −38.11 ± 1.8 mV; the “Long-term inactivation, 2nd Pulse” value is given as −91.7 ± 1.27 % maximal Na+ current; the “Long-term inactivation, 3rd Pulse” value is recorded as −85.98 ± 2.18 % maximal Na+ current; the “Long-term inactivation, 4th Pulse” value is on record as −84.62 ± 2.28 % maximal Na+ current. Also, on human Nav1.5 (GFP + PW164), the Peak Density is given as −314.9 ± 17.9 pA/pF, the Steady state inactivation is −82.7 ± 1.5 mV and the “Tau (τ)” value is recorded as 1.12 ± 0.07 ms. Also, the “activity on Nav1.5 currents” value on human Nav1.5 (Nav1.5-expressing HEK293 cells alone or with FGF13-1b or FGF13-1a) was “inactive”. At human Nav1.6 (setting [1]), the Activation was −29.2 ± 1.2 mV; the “Long-term inactivation, 2nd Pulse” value is reported as −67.4 ± 4.1 % maximal Na+ current; the “Long-term inactivation, 3rd Pulse” value is reported as −59.7 ± 4.1 % maximal Na+ current; the “Long-term inactivation, 4th Pulse” value was −54.2 ± 4.9 % maximal Na+ current. In addition, on human Nav1.6 (setting [1]), the Peak Density was −102.7 ± 8.8 pA/pF, the Steady state inactivation is recorded as −50.8 ± 2.1 mV and the “Tau (τ)” value is given as 1.46 ± 0.04 ms. In addition, the “activity on Nav1.6-mediated currents” value on human Nav1.6 (HEK293 stably expressing Nav1.6 alone or coexpressing FGF13) was “does not modulate; also recorded: inactive”.

Source of the values: PMC12259270, “Sensory neuron–expressed FGF13 controls nociceptive signaling in diabetic neuropathy models” (The Journal of Clinical Investigation, 2025).
